The target of series [1] is T1, K18PL tau (Homo sapiens, UniProt P10636, P618L).
T1 construct: (K18PL; amino acids 244-369); made in house
Put plainly: K18PL tau centrifugation (sedimentation) assay, SDS-PAGE densitometry. Format: biochemical. Particulars: K18PL tau centrifugation assay. The procedure:
The determination of compound-induced effects on the amount of tau that remains soluble upon centrifugation, and EM visualization of tau species following incubation with test compounds, were as previously described (Crowe, A., Ballatore, C., Hyde, E., Trojanowski, J. Q., and Lee, V. M. Y. (2007) Biochemical and Biophysical Research Communications 358, 1-6).
(§1) The solubility of test compounds in the sodium acetate buffer used for subsequent fibrillization reactions was determined by turbidimetric measurements. Compounds were then evaluated in a heparin-induced tau assembly assay, in which the fibrillization of the truncated K18 tau fragment (comprised of four MT-binding repeats) bearing the P301L mutation (K18PL) found in FTDP-17, was monitored by thioflavine-T (ThT) binding and fluorescence (FIG. 3A). (Crowe, A.; et al., Identification of aminothienopyridazine inhibitors of tau assembly by quantitative high-throughput screening. Biochemistry 2009, 48, 7732-45.) The inhibitory activity of test compounds was then confirmed with an orthogonal sedimentation assay in which compound-treated fibrillizing mixtures were centrifuged and quantitation of K18PL tau in the soluble and insoluble fraction was performed by densitometric analyses of SDS-PAGE (FIG. 3B). […] Thus, the tau fibrillization assay was repeated in which both DMSO- and compound-treated mixtures were initially centrifuged for 30 min. prior to incubation (i.e., at time zero of the fibrillization reaction) to remove any pelletable material.

The target in series [2] is T1, K18PL tau. Put plainly: Heparin-induced K18PL tau fibrillization assay monitored by ThT fluorescence. Particulars: for inhibition at 80 µM: highest tested concentration (80 μM), read-out: Tau ThT Assay % Inhib.; for IC50: logarithm of IC50, K18PL tau ThT fluorescence inhibition, read-out: Tau ThT Assay Log IC50 (converted). Format: biochemical. The method, then: Tau fibril formation reactions were performed essentially as described (Crowe, A., Ballatore, C., Hyde, E., Trojanowski, J. Q., and Lee, V. M. Y. (2007) Biochemical and Biophysical Research Communications 358, 1-6). K18PL (2 μl of a 30 μM stock that also contained 0.24 μM Alexa Red-labeled K18PL) was dispensed into black 1536-well plates (Grenier) using a solenoid-based dispenser. Following transfer of 23 nL of test compound or DMSO vehicle by a pin tool from compound library plates, 2 μl/well of 40 μM heparin in reagent buffer was dispensed and the plate was centrifuged for 15 s at 1000 rpm in a table-top centrifuge. The fibrillization reaction proceeded for 6 hours at 37° C. in a humidified incubator (Kalypsys).
K18PL fibril formation was quantified with a ThT assay as previously described (Crowe, A., Ballatore, C., Hyde, E., Trojanowski, J. Q., and Lee, V. M. Y. (2007) Biochemical and Biophysical Research Communications 358, 1-6). Briefly, 1 μl/well of 62.5 μM ThT (Sigma) in 100 mM glycine, pH 8.5 (12.5 μM final concentration) was dispensed into 1536-well plates after completion of the fibrillization reaction and incubated at room temperature for 1 hour. Plates were read on an Envision fluorescence plate reader with an excitation of 450 nm and an emission setting of 510 nm.
Compound effects on tau assembly were determined for the ThT and FP assays using the formula 1−(Fcompound− FDMSO)/( Fcontrol− FDMSO), where Fcontrol denotes the median plate fluorescence values (ThT assay) or mP values (FP assay) of the non-fibrillizing K18 KD control wells, FDMSO denotes the median value of the DMSO control wells, and Fcompound denotes the compound well values. The resulting values were multiplied by 100 to obtain the percent inhibition of tau fibril formation.
as §1

For series [3], the target named is T2, Aβ(1-42) (Homo sapiens, UniProt P05067).
T2 construct: Synthetic Aβ(1-42) peptide (rPeptide); purchased rPeptide
T2 sequence (P05067 672-713 limits assumed): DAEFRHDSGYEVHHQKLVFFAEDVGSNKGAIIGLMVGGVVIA
Put plainly: Aβ(1-42) fibrillization assay (ThT). Type of series: biochemical. As to conditions: Table 3; highest tested concentration (80 μM); read-out: Aβ42 ThT Assay % Inhib.

The mark [4] stands for this setting: Table 3, NC = not calculated due to insufficient activity.

The structures appear in SMILES notation. Like-named read-outs stand apart in the source and are kept apart here.

T1 sequence (P10636 561-686 P618L): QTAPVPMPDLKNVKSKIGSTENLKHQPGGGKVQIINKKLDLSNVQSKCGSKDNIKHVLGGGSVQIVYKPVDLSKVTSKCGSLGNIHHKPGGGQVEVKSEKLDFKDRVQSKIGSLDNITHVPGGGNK

In turn, `CCOC(=O)c1nn(-c2ccc(N(C)C)cc2)c(=O)c2c(N)scc12` [CNDR-51359, Ethyl 5-amino-3-(4-(dimethylamino)phenyl)-4-oxo-3,4-dihydrothieno[3,4-d]pyridazine-1-carboxylate] gave a melting point of 211 to 213 °C. The “Tau Cent. Assay % Soluble” value in series [1] (Table 4) came out at 70%. In series [2] (Table 4), the inhibition at 80 µM came out at 68% and the IC50 is 3.16 µM.
`CCOC(=O)c1nn(-c2cccc(C)c2)c(=O)c2c(N)scc12` [CNDR-51423, Ethyl 5-amino-4-oxo-3-(m-tolyl)-3,4-dihydrothieno[3,4-d]pyridazine-1-carboxylate] yielded a melting point of 190 to 191 °C. For the same compound, in series [1] (Table 4), the “Tau Cent. Assay % Soluble” value came out at 29%. In series [2] (Table 4), the inhibition at 80 µM came out at 80% and the IC50 is 1.26 µM.
In the same order, the values of `CCOC(=O)c1nn(-c2ccccc2Br)c(=O)c2c(N)scc12` [CNDR-51421, Ethyl 5-amino-3-(2-bromophenyl)-4-oxo-3,4-dihydrothieno[3,4-d]pyridazine-1-carboxylate] are 203 to 205 °C, 66%, 100% and 6.31 µM.
As for `CCOC(=O)c1nn(-c2cccc(Br)c2)c(=O)c2c(N)scc12` [CNDR-51422, Ethyl 5-amino-3-(3-bromophenyl)-4-oxo-3,4-dihydrothieno[3,4-d]pyridazine-1-carboxylate], the melting point was 163 to 165 °C. The “Tau Cent. Assay % Soluble” value in series [1] (Table 4) is 67%. In series [2] (Table 4), the inhibition at 80 µM was determined as 87% and the half-maximal inhibitory concentration (IC50) was 1 µM.
As to `CCOC(=O)c1nn(-c2ccc(NC)cc2)c(=O)c2c(N)scc12` [CNDR-51358, Ethyl 5-amino-3-(4-(methylamino)phenyl)-4-oxo-3,4-dihydrothieno[3,4-d]pyridazine-1-carboxylate], the melting point was in the range of 211 to 213 °C. The “Tau Cent. Assay % Soluble” value in series [1] (Table 4) came to 61%. Moreover, in series [2] (Table 4), the inhibition at 80 µM came out at 76% and the IC50 is 3.98 µM.
For `CCOC(=O)c1nn(-c2ccc(N=[N+]=[N-])cc2)c(=O)c2c(N)scc12` [CNDR-51412, Ethyl 5-amino-3-(4-azidophenyl)-4-oxo-3,4-dihydrothieno[3,4-d]pyridazine-1-carboxylate], in that order: 169 to 170 °C, 51%, 80% and 6.31 µM.
`CCOC(=O)c1nn(-c2ccc(Br)cc2)c(=O)c2c(N)scc12` [CNDR-51386, Ethyl 5-amino-3-(4-bromophenyl)-4-oxo-3,4-dihydrothieno[3,4-d]pyridazine-1-carboxylate] came in with a melting point of 198 to 200 °C.
Compound `CCOC(=O)c1cccc(-n2nc(C(=O)OCC)c3csc(N)c3c2=O)c1` [CNDR-51420, Ethyl 5-amino-3-(3-(ethoxycarbonyl)phenyl)-4-oxo-3,4-dihydrothieno[3,4-d]pyridazine-1-carboxylate] came in with a melting point of 159 to 160 °C. The “Tau Cent. Assay % Soluble” value in series [1] (Table 4) came out at 83%. Also, in series [2] (Table 4), the inhibition at 80 µM came to 74% and the IC50 was 2 µM.
Consider `CCOC(=O)c1ccccc1-n1nc(C(=O)OCC)c2csc(N)c2c1=O` [CNDR-51419, Ethyl 5-amino-3-(2-(ethoxycarbonyl)phenyl)-4-oxo-3,4-dihydrothieno[3,4-d]pyridazine-1-carboxylate], for which the melting point lay in the range of 176 to 178 °C. Further, the “Tau Cent. Assay % Soluble” value in series [1] (Table 4) was found to be 40%. Also, in series [2] (Table 4), the inhibition at 80 µM was determined as 65% and the IC50 is 1.26 µM.
With `Nc1scc2c(CO)nn(-c3ccccc3)c(=O)c12` [Compound 15], the inhibition at 80 µM amounted to 10% in series [3] and 91% in series [2] (Table 3). In addition, in series [1] (Table 3), the “Tau Cent. Assay % Soluble” value turned out to be 81%. The IC50 in series [2] (setting [4]) is 6.31 µM.
On to `Nc1scc2c(C(=O)N3CCOCC3)nn(-c3ccccc3)c(=O)c12` [Compound 8b], for which the inhibition at 80 µM in series [3] came out at 0%; in series [2] (Table 3), 81%. For the same compound, the “Tau Cent. Assay % Soluble” value in series [1] (Table 3) is given as 89%. Further, the IC50 in series [2] (setting [4]) is 15.8 µM.
With `NC(=O)c1nn(-c2ccccc2)c(=O)c2c(N)scc12` [Compound 8c], the figures for the inhibition at 80 µM in series [3] and in series [2] (Table 3) were 16% and 93%, respectively. The “Tau Cent. Assay % Soluble” value in series [1] (Table 3) amounted to 89%. The IC50 in series [2] (setting [4]) is 6.31 µM.
As for `CCOC(=O)c1ccc(-n2nc(C(=O)OCC)c3csc(N)c3c2=O)cc1` [Compound 5e], the inhibition at 80 µM in series [3] worked out at 4%; in series [2] (Table 3), 29%. In series [1] (Table 3), the “Tau Cent. Assay % Soluble” value came to 23%.
In the case of `Nc1nn(-c2ccccc2)c(=O)c2c(N)scc12` [Compound 14], the values for the inhibition at 80 µM in series [3] and in series [2] (Table 3) were 21% and 92%, respectively. Further, the “Tau Cent. Assay % Soluble” value in series [1] (Table 3) came to 86%. The 50% inhibitory concentration (IC50) in series [2] (setting [4]) was 6.31 µM.

The term melting point denotes the temperature, or range, at which the solid turns liquid. Broadly, the IC50 is the concentration that gives 50% inhibition.

Source of the values: patent publication US20130029983A1, “AMINOTHIENOPYRIDAZINE INHIBITORS OF TAU ASSEMBLY” (priority 2009, published 2013).
